“Also recorded” adds a separate entry of the source.
Experiments:
[1] = tested on: Ca2+ ion channel activity evoked by compound 4 in SH-SY5Y cells; test: Inhibitor analysis of Ca2+ ion channel activity evoked by compound 4; assay type: cell-based, human; settings: for Effect on Ca2+ ion channel activity in the presence of compound 4: inhibitor at concentrations from 4 to 100 μM; for inhibition at 100 µM / IC50: Homo sapiens; for inhibition at 100 µM: SH-SY5Y, 15 min preincubation; for IC50: 100 μM compound 4, SH-SY5Y cells, read-out: IC50 for inhibition of Ca2+ ion channel activity evoked by compound 4
Procedure: The intracellular free Ca^2+ concentration [Ca^2+]i was measured in confluent monolayers of SH-SY5Y or […] cells with the Ca^2+-sensitive fluorescent indicator Fluo-4 NW according to the instruction (Fluo-4 NW Calcium Assay Kit, Thermo Fisher Scientific, cat. No. F36206) (as referenced by […] al.. Changes in [Ca^2+]i were measured from the fluorescence emitted at 516 nm due to alternate excitation at 494 nm using the microplate reader Tecan Infinite M1000 (Austria). Intracellular Ca^2+ concentration was calculated from a standard curve with known amounts of free Ca^2+ using the standard Ca^2+-EGTA buffering system (Calcium Calibration Buffer Kit, cat. No.C-3008, Thermo Fisher Scientific). […] The commercial calcium agonist compound Bay […] was used as the reference compound.

[Ca2+]i in SH-SY5Y cells = Ca2+ channel agonist activity, [Ca2+]i in Fluo-4 NW-loaded cells; assay type: cell-based, human; settings: compound at 100 μM
Procedure: (§1) The intracellular free Ca^2+ concentration [Ca^2+]i was measured in confluent monolayers of SH-SY5Y or A7R5 cells with the Ca^2+-sensitive fluorescent indicator Fluo-4 NW according to the instruction (Fluo-4 NW Calcium Assay Kit, Thermo Fisher Scientific, cat. No. F36206) (as referenced by Vilskersts et al..
For the investigation of Ca^2+ channel agonist activity of the DHP compound, 4 […] NW loaded SH-SY5Y or A7R5 cells were stimulated by the addition of compound 4 at the concentration range from 4 to 100 μM. The well-known calcium channel agonist Bay K8644 was used as the positive control (at the concentration range from 4 to 100 μM).
(§2) Changes in [Ca^2+]i were measured from the fluorescence emitted at 516 nm due to alternate excitation at 494 nm using the microplate reader Tecan Infinite M1000 (Austria). Intracellular Ca^2+ concentration was calculated from a standard curve with known amounts of free Ca^2+ using the standard Ca^2+-EGTA buffering system (Calcium Calibration Buffer Kit, cat. No.C-3008, Thermo Fisher Scientific).
(§3) In some experiments, […] NW loaded cells were washed and placed in normal Ca^2+-free HEPES-buffered replacement medium. In Ca^2+ restoration experiments, Ca^2+ was initially absent from the medium and was restored to 1 mM after 870 s of stimulation with compound 4.

[2] = tested on: carbachol-dependent mobilization of intracellular Ca2+ in SH-SY5Y cells; test: Antagonist effect on carbachol-evoked intracellular Ca2+ mobilization (Fluo-4 NW); assay type: cell-based, human; settings: SH-SY5Y cells; for Antagonist activity (IC50) / IC50: 100 nM carbachol, 15 min preincubation; for IC50: Homo sapiens, read-out: Antagonist activity (IC50)
Procedure: as §1
The investigation of Ca^2+ channel blocking activity of DHP derivatives was based on the effect of DHP on carbachol evoked intracellular Ca^2+ mobilization in human neuroblastoma cells.
The cells were preincubated in the dark for 15 minutes with the tested compounds at concentrations ranging from 0.16 to 100 μM. The application of carbachol (100 nM) to […] NW loaded SH-SY5Y cells stimulated a classic “biphasic” response. The well-known 3rd generation calcium channel inhibitor amlodipine, which is also claimed to act as antioxidant and free radical scavenger, was used as the positive control (at the concentration range from 20 to 100 μM).
as §2
The IC50 values for the tested compounds were calculated using GraphPad Prism 4.0 software.

[3] = Electrochemical oxidation potentials by cyclic voltammetry; assay type: physicochemical; settings: glassy carbon electrode, vs Ag/Ag+, acetonitrile, 0.1 M TBABF4
Procedure: The cyclic voltammetry experiments were carried out on the PARSTAT 2273 electrochemical system. A stationary glassy carbon disk electrode (d = 0.8 mm) served as the working electrode, while the counter electrode was a Pt wire. The oxidation potentials were measured relative to Ag/Ag^+ reference electrode. Acetonitrile was dried over P2O5 and distilled; the distillate was stored over CaH2 and redistilled just before use. Recrystallized tetrabutylammonium tetrafluoroborate (TBABF4) was used as a supporting electrolyte at 0.1 M concentration.

[4] = tested on: Ca2+ response induced by compound 4 in SH-SY5Y cells (RyRs); test: Role of RyRs in Ca2+ response induced by compound 4 (Ca2+-free medium); assay type: cell-based, human
Procedure: as §3
Where indicated, the cells were preincubated with inhibitors of Ca^2+ signaling proteins (amlodipine, nifedipine, nicardipine, mecamylamine, atropine, or 2-aminoethoxydiphenyl borate (2-APB) in dose 100 μM; procaine in dose 10 mM for 15 min, or with 5 μM thapsigargin for 10 min, or with 100 μM ruthenium red for 5 min), followed by stimulation with 100 μM of compound 4. The commercial calcium agonist compound Bay K8644 was used as the reference compound.

[5] = inhibitor 100 μM, 100 μM compound 4
[6] = inhibitor 4 μM, 100 μM compound 4
[7] = inhibitor 20 μM, 100 μM compound 4

CN1[C@@H]2CC[C@H]1C[C@@H](OC(=O)C(CO)c1ccccc1)C2 (some centres unmarked) [Atropine]
Effect on Ca2+ ion channel activity in the presence of compound 4 [1]: no effect

COC(=O)C1=C(C)NC(C)=C([N+](=O)[O-])C1c1ccccc1C(F)(F)F (centres unmarked) [Bay K8644]
Agonist activity (RFU, 100 μM) ([Ca2+]i in SH-SY5Y cells): 1553 ± 115 RFU | Antagonist activity (IC50) [2]: No effect

CCOC(=O)COC(=O)C1=C(C)NC(C)=C(C(=O)OCC(=O)OCC)C1c1ccc[n+](CC(=O)c2ccc([N+](=O)[O-])cc2)c1 [Compound 1]
Agonist activity (RFU, 100 μM) ([Ca2+]i in SH-SY5Y cells): No effect | IC50 [2]: 100 ± 12 µM

NCCOB(c1ccccc1)c1ccccc1 [Compound 2-APB, 2-aminoethoxydiphenyl borate]
Effect on Ca2+ channel response induced by compound 4 ([1]; pretreatment for 15 min): no effect

CCOC(=O)CC[n+]1cccc(C2C(C(=O)OCC(=O)OCC)=C(C)NC(C)=C2C(=O)OCC(=O)OCC)c1 [Compound 2]
Electrooxidation potential [3]: 1.69 V | Agonist activity (RFU, 100 μM) ([Ca2+]i in SH-SY5Y cells): No effect | Antagonist activity (IC50) [2]: lacked any activity; also recorded: no activity; also recorded: No effect

CCOC(=O)COC(=O)C1=C(C)NC(C)=C(C(=O)OCC(=O)OCC)C1c1ccc[n+](CC(=O)c2ccccc2)c1 [Compound 3]
Electrooxidation potential [3]: 1.68 V | Agonist activity (RFU, 100 μM) ([Ca2+]i in SH-SY5Y cells): No effect | IC50 [2]: 3.6 ± 0.3 µM

CCOC(=O)COC(=O)C1=C(C)NC(C)=C(C(=O)OCC(=O)OCC)C1c1cc[n+](CC(=O)c2ccccc2)cc1 [Compound 5]
Electrooxidation potential [3]: 1.70 V | Agonist activity (RFU, 100 μM) ([Ca2+]i in SH-SY5Y cells): No effect | Antagonist activity (IC50) [2]: lacked any activity; also recorded: no activity; also recorded: No effect

CCOC(=O)COC(=O)C1=C(C)NC(C)=C(C(=O)OCC(=O)OCC)C1c1ccc[n+](CC(=O)c2ccc(OC)cc2)c1 [Compound 6]
Electrooxidation potential [3]: 1.78 V | Agonist activity (RFU, 100 μM) ([Ca2+]i in SH-SY5Y cells): No effect | IC50 [2]: 100 ± 9 µM | Antagonist activity relative to amlodipine (times lower) [2]: approximately nine times lower

CNC1(C)C2CCC(C2)C1(C)C (centres unmarked) [Mecamylamine]
Effect on Ca2+ ion channel activity in the presence of compound 4 [1]: no effect

COC(=O)C1=C(C)NC(C)=C(C(=O)OCCN(C)Cc2ccccc2)C1c1cccc([N+](=O)[O-])c1 (centres unmarked) [Nicardipine]
inhibition at 100 µM [1, 5]: 33 ± 8% | IC50 [1]: > 100 µM | Inhibition (%) of Ca2+ ion channel activity evoked by compound 4 [1, 6]: 10 ± 6% | Inhibition (%) of Ca2+ ion channel activity evoked by compound 4 [1, 7]: 11 ± 5%

COC(=O)C1=C(C)NC(C)=C(C(=O)OC)C1c1ccccc1[N+](=O)[O-] [Nifedipine]
inhibition at 100 µM [1, 5]: 42 ± 5% | IC50 [1]: > 100 µM | Inhibition (%) of Ca2+ ion channel activity evoked by compound 4 [1, 6]: 7 ± 8% | Inhibition (%) of Ca2+ ion channel activity evoked by compound 4 [1, 7]: 16 ± 10% | Phase of the compound 4 response that is inhibited [1, 5]: inhibited both phases

CCN(CC)CCOC(=O)c1ccc(N)cc1 [Procaine]
IC50 ([4]; Homo sapiens, SH-SY5Y, Ca2+-free medium, read-out: IC50 for inhibition of Ca2+ response induced by compound 4): 61 ± 9 µM | inhibition at 6.25 µM ([4]; Homo sapiens, SH-SY5Y, inhibitor 6.25 μM, Ca2+-free medium): 0% | inhibition at 12.5 µM ([4]; Homo sapiens, SH-SY5Y, inhibitor 12.5 μM, Ca2+-free medium): 5 ± 9% | inhibition at 25 µM ([4]; Homo sapiens, SH-SY5Y, inhibitor 25 μM, Ca2+-free medium): 0% | inhibition at 50 µM ([4]; Homo sapiens, SH-SY5Y, inhibitor 50 μM, Ca2+-free medium): 18 ± 6% | inhibition at 100 µM ([4]; Homo sapiens, SH-SY5Y, inhibitor 100 μM, Ca2+-free medium): 98 ± 5% | Ca2+ response induced by compound 4 after preincubation with inhibitor ([4]; inhibitor 10 mM): completely blocked; also recorded: absent

N.N.N.N.N.N.N.N.N.N.N.N.N.N.[Cl-].[Cl-].[Cl-].[Cl-].[Cl-].[Cl-].[O-2].[O-2].[Ru+3].[Ru+3].[Ru+4] [Ruthenium, Ruthenium red]
Ca2+ response induced by compound 4 after preincubation with inhibitor ([4]; inhibitor 100 μM): absent

C/C=C(/C)C(=O)O[C@H]1C(C)=C2[C@H]([C@@H]1OC(=O)CCCCCCC)[C@@](C)(OC(C)=O)C[C@H](OC(=O)CCC)[C@@]1(O)[C@H]2OC(=O)[C@@]1(C)O [thapsigargin]
Influence on Ca2+ ion increase induced by compound 4 ([1]; 5 μM inhibitor, Ca2+-free medium): no influence
